Experimental data as given in PubChem BioAssay (NCI).
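Values below derive from 48-hour exposures of cells grown in 96-well plates, with endpoints linearly interpolated between the two concentrations bracketing the appropriate inhibition level. TGI marks complete inhibition of growth.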

Columns and labels:
Assay in all cases: inhibition of tumour cell growth, NCI panel, 48 h
MDA-N = tested on: MDA-N
SK-MEL-5 melanoma = tested on: SK-MEL-5 melanoma
SK-MEL-28 melanoma = tested on: SK-MEL-28 melanoma
DMS 114 small cell lung = tested on: DMS 114 small cell lung
DMS 273 small cell lung = tested on: DMS 273 small cell lung
KM20L2 colon = tested on: KM20L2 colon
LXFL 529 NSCLC = tested on: LXFL 529 NSCLC
M19-MEL melanoma = tested on: M19-MEL melanoma
SNB-78 CNS = tested on: SNB-78 CNS
XF 498 CNS = tested on: XF 498 CNS
DLD-1 colon = tested on: DLD-1 colon
HOP-18 NSCLC = tested on: HOP-18 NSCLC

| Structure (SMILES) | TGI (MDA-N) [µM] | TGI (SK-MEL-5 melanoma) [µM] | TGI (SK-MEL-28 melanoma) [µM] | also measured |
| --- | --- | --- | --- | --- |
| COC(=O)[C@H](Cc1c[nH]c2ccccc12)NP(=O)(O)OC[C@H]1O[C@@H](n2cc(C)c(=O)[nH]c2=O)C[C@@H]1N=[N+]=[N-] | > 100 | > 100 | – | – |
| CC(=NNC(=S)Nc1cccc(C)c1)c1cccc(C(C)=NNC(=S)Nc2cccc(C)c2)n1 | > 100 | 30.8 | > 100 | – |
| O=C(NNC1=NCCCCN1)Nc1ccc(Cl)cc1 | – | > 100 | > 100 | – |
| C=C(C)[C@@]1(O)CCCC[C@@H]1CC(Sc1ccccc1)Sc1ccccc1 | 47.8 | 29.5 | 38.6 | – |
| CCN(CC)CCN(C(=Nc1ccccc1)N1CCCCC1)c1ccccc1 | 11.2 | 17.6 | 46 | – |
| O=C(CC(C(=O)c1cccs1)c1ccsc1)c1ccccc1 (centres undefined) | > 100 | > 100 | > 100 | – |
| Cc1ccc(N=NC(=Nc2ccc(Cl)cc2)c2ccc(N(CCC#N)CCC#N)cc2)cc1 | > 100 | > 100 | > 100 | – |
| O=c1cc(CSc2c(-c3ccccc3)c(=O)n(-c3ccccc3)c(=S)n2-c2ccccc2)[nH]c(=O)[nH]1 | > 100 | > 100 | > 100 | – |
| COc1cc(/C=N\c2nc(-c3ccc(NS(=O)(=O)c4ccc(Cl)c(OC)c4)cc3)cs2)ccc1O | > 100 | > 100 | > 100 | – |
| CN(C)CCCNc1ncnc2c1ncn2C1OC(CO)C(O)C1O (centres undefined) | > 100 | > 100 | > 100 | – |
| Cc1occc1C(=S)Nc1ccc(Cl)c(/C=N/OC(C)(C)C)c1 | 37 | 33.4 | 34.4 | – |
| CC1=NNC(=O)C1C1CC(c2c[nH]c3ccccc23)=NN(C(N)=O)C1=O (centres undefined) | > 100 | > 100 | > 100 | – |
| CCOC(=O)C1(C(=O)OCC)C[C@@H](C)[C@@H](O)C1 | > 100 | > 100 | > 100 | – |
| CCN(CC)C1CCC(C2c3cc4c(cc3OC(N3CCOCC3)C2C)OCO4)CC1 (centres undefined) | 38 | > 55.7 | > 100 | – |
| COC(=O)C1=C(OC(=O)/C(=C/c2ccccc2)c2ccc(Cl)cc2)C(C(=O)OC)[C@@]2(O)[C@@H](C(=O)OC)[C@H](C)C[C@@H]1[C@@H]2C(=O)OC (some centres undefined) | > 100 | > 100 | > 100 | – |
| CCOC(=O)C1C(C)C2(C#N)C(=N)OC1(C)C2(C#N)C#N (centres undefined) | > 100 | 98.5 | > 100 | – |
| CNC(=O)NCCN1CC2CCC(CC2)C1 | > 10 | > 10 | > 10 | – |

| Structure (SMILES) | TGI (MDA-N) [µM] | TGI (SK-MEL-5 melanoma) [µM] | TGI (SK-MEL-28 melanoma) [µM] | also measured |
| --- | --- | --- | --- | --- |
| O=C(O)c1nc2ccc(C(F)(F)F)cc2nc1NCc1ccc(Cl)c(Cl)c1 | 35.1 | 37.5 | 33.7 | – |
| Cc1c2c(OCC(O)CN3CCN(c4ccccc4)CC3)nn(C)c(=O)c2c(C)n1-c1ccccc1 (centres undefined) | 35.4 | 30.3 | 40.2 | – |
| O=C1CC2(CCC3=C(O2)c2ccccc2NC(=O)C3)C(=O)c2ccccc2N1 (centres undefined) | – | > 100 | > 100 | TGI (DMS 114 small cell lung): > 100 µM; TGI (DMS 273 small cell lung): > 100 µM; TGI (KM20L2 colon): > 100 µM; TGI (LXFL 529 NSCLC): > 100 µM; TGI (M19-MEL melanoma): > 100 µM; TGI (SNB-78 CNS): > 100 µM; TGI (XF 498 CNS): > 100 µM |
| Clc1ccc(CCn2cncn2)cc1 | – | > 100 | > 100 | TGI (DLD-1 colon): > 100 µM; TGI (DMS 114 small cell lung): > 100 µM; TGI (DMS 273 small cell lung): > 100 µM; TGI (HOP-18 NSCLC): > 100 µM; TGI (KM20L2 colon): > 100 µM; TGI (LXFL 529 NSCLC): > 100 µM; TGI (M19-MEL melanoma): > 100 µM; TGI (SNB-78 CNS): > 100 µM |
| CC1(C)C2CC(O)C1CCC2=O (centres undefined) | > 100 | > 100 | > 100 | – |
| COc1ccc(OC)c(C2CCc3c(cnc4nc(N)nc(N)c34)C2)c1 (centres undefined) | 17.2 | 33.4 | 29.4 | – |
| CCSc1cc2c(cc1O)CC[C@@H]1[C@@H]2CC[C@]2(C)[C@@H](O)CC[C@@H]12 | 7.66 | 22.7 | 28.9 | – |
| CC(Oc1ccccc1Cl)C(=O)NN1C(=O)CC(=O)NC1=S (centres undefined) | > 100 | > 100 | > 100 | – |
| COc1ccc2[nH]cc(C(=O)C(=O)NC34CC5CC(CC(C5)C3)C4)c2c1 | > 100 | > 100 | > 100 | – |
| Clc1ccc(C(Cc2cccc(Cl)c2)c2c(Cl)nc(N3CCNCC3)nc2Cl)cc1 (centres undefined) | 29.6 | 29.7 | 33.6 | – |
| O=C(c1nc2ccccc2[nH]c1=O)C(O)c1ccco1 (centres undefined) | – | > 100 | > 100 | TGI (DMS 114 small cell lung): > 100 µM; TGI (DMS 273 small cell lung): > 100 µM; TGI (KM20L2 colon): > 100 µM; TGI (LXFL 529 NSCLC): > 100 µM; TGI (M19-MEL melanoma): > 100 µM; TGI (SNB-78 CNS): > 100 µM; TGI (XF 498 CNS): > 100 µM |
| N#CC1=C(c2ccccc2)C(=C2Nc3ccccc3N2)C2S/C(=C\c3ccccc3)C(=O)N2C1=N (centres undefined) | – | 3.3 | 10.5 | TGI (DLD-1 colon): 12 µM; TGI (DMS 114 small cell lung): 4.64 µM; TGI (DMS 273 small cell lung): 4.9 µM; TGI (KM20L2 colon): 6.56 µM; TGI (LXFL 529 NSCLC): 10.8 µM; TGI (M19-MEL melanoma): 7.97 µM; TGI (SNB-78 CNS): 6.86 µM; TGI (XF 498 CNS): 5.57 µM |
| CCOC(=O)Cn1c(=O)c2nc(SC)sc2n(-c2ccccc2)c1=S | > 100 | > 100 | > 100 | – |
| C=CCN1C[C@H](C)N([C@@H](c2ccc(C(=O)N3CCCCC3)cc2)c2cccc(OC)c2)C[C@H]1C | > 100 | 33.6 | – | – |
| O=c1[nH]nc(Cc2ccccc2)n1CCCl | > 100 | – | > 100 | – |
| OC[P+](CO)(CO)C12CC3CC(CC(C3)C1)C2 | > 100 | > 100 | > 100 | – |
| COC(=O)C1=C(OC(=O)c2ccccc2)C(C(=O)OC)[C@@]2(O)[C@@H](C(=O)OC)[C@H](C)C[C@@H]1[C@@H]2C(=O)OC (some centres undefined) | 63.5 | > 100 | > 100 | – |
